Experimental findings from patent US20210255193A1, “LYSINE REACTIVE PROBES AND USES THEREOF” (The Scripps Research Institute, priority 2017, published 2021) are described below.

Experiment in all cases: competitive isoTOP-ABPP
Holding throughout (assay type): binding

The target in assay [1] is T1, ENOPH1 Enolase-phosphatase E1 (Homo sapiens, UniProt Q9UHY7).
T1 construct: endogenous in cells; host or cells: MDA-MB-231 (soluble fraction of lysate)
The conditions noted are these: 50 uM, in vitro; for R value (DMSO/fragment) for probe 1 labeling: Q9UHY7_K111; for R value (DMSO/fragment) for probe 1 labeling / isoTOP-ABPP reactivity ratio at lysine Q9UHY7_K111: 231 sol. Put shortly:
(§1)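 Here, isoTOP-ABPP measures loss of STP-alkyne labeling at individual lysines after fragment exposure in lysate. Activated esters are dosed at 50 μM, guanidinylating agents at 100 μM; the probe follows at 0.1 mM for 1 h. R ≥4 marks a liganded lysine.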

Another assay deals with T2, FAH Fumarylacetoacetase (Homo sapiens, UniProt P16930).
T2 construct: isoTOP-ABPP experiments performed in cell lysates (in vitro); endogenous in cells; host or cells: soluble proteome of human cancer cell lines (MDA-MB-231; Ramos and Jurkat also prepared)
T2 sequence (P16930 1-419): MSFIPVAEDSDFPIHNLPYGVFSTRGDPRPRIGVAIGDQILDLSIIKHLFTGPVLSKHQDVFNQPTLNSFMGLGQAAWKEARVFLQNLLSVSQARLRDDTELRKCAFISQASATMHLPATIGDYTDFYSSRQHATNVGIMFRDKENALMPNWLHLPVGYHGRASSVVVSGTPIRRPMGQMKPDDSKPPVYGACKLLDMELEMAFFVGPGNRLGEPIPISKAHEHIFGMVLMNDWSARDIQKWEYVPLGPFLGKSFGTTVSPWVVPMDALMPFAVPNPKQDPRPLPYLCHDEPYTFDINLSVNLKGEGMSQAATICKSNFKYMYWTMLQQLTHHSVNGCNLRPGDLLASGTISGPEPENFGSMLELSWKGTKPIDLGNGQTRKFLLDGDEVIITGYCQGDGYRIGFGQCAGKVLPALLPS
The conditions noted are these: 50 uM, in vitro; for R value (DMSO/fragment) for probe 1 labeling: P16930_K241; for R value (DMSO/fragment) for probe 1 labeling / isoTOP-ABPP reactivity ratio at lysine P16930_K241: 231 sol. Put shortly:
as §1

For assay [2], the target named is T3, GLOD4 Glyoxalase domain-containing protein 4 (Homo sapiens, UniProt Q9HC38).
T3 construct: endogenous in cells; host or cells: MDA-MB-231 (soluble fraction of lysate)
T3 sequence (Q9HC38 1-313): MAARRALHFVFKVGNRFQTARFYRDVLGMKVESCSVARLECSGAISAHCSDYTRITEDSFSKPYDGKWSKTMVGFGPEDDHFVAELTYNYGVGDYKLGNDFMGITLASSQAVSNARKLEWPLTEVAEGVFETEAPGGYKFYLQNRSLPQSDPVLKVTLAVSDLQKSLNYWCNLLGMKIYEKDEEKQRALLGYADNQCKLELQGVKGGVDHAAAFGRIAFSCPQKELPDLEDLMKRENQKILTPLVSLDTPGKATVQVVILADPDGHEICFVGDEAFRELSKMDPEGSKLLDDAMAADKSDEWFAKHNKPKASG
The conditions noted are these: 50 uM, in vitro; for R value (DMSO/fragment) for probe 1 labeling: Q9HC38_K305; for R value (DMSO/fragment) for probe 1 labeling / isoTOP-ABPP reactivity ratio at lysine Q9HC38_K305: 231 sol. Put shortly:
as §1

For assay [3], the target named is T4, POLR2L DNA-directed RNA polymerases I, II, and III subunit (Homo sapiens, UniProt P62875).
T4 construct: isoTOP-ABPP experiments performed in cell lysates (in vitro); endogenous in cells; host or cells: soluble proteome of human cancer cell lines (MDA-MB-231, Ramos, Jurkat)
The conditions noted are these: 50 uM, in vitro; for R value (DMSO/fragment) for probe 1 labeling: P62875_K67; for R value (DMSO/fragment) for probe 1 labeling / isoTOP-ABPP reactivity ratio at lysine P62875_K67: 231 sol. In a few lines:
as §1

Assay [4] has as its target T5, TRMT10C Mitochondrial ribonuclease P protein 1 (Homo sapiens, UniProt Q7L0Y3).
T5 construct: isoTOP-ABPP experiments performed in cell lysates (in vitro); endogenous in cells; host or cells: soluble proteome of human cancer cell lines (MDA-MB-231; Ramos and Jurkat also prepared)
T5 sequence (Q7L0Y3 40-403): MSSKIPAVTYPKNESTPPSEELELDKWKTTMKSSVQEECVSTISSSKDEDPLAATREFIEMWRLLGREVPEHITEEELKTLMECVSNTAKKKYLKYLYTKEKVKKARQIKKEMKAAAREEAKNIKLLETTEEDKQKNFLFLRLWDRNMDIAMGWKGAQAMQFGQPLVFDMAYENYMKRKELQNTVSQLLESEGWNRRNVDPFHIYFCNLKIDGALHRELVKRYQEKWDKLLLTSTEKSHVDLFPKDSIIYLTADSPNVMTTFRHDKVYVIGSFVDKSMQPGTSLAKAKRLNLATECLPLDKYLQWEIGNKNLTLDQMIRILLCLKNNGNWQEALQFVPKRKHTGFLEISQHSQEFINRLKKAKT
The conditions noted are these: 50 uM, in vitro; for R value (DMSO/fragment) for probe 1 labeling: Q7L0Y3_K325; for R value (DMSO/fragment) for probe 1 labeling / isoTOP-ABPP reactivity ratio at lysine Q7L0Y3_K325: 231 sol. Put shortly:
as §1

T1 sequence (Q9UHY7 whole entry): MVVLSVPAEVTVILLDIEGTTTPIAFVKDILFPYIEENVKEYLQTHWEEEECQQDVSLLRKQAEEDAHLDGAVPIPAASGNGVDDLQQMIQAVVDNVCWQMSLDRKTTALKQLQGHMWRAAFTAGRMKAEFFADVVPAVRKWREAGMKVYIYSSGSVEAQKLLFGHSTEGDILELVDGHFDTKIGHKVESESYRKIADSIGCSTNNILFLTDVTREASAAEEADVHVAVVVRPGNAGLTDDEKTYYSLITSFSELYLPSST

For the compound `O=C(Oc1c(F)c(F)c(F)c(F)c1F)c1cc(C(F)(F)F)cc(C(F)(F)F)c1` [fragment 21, Pentafluorophenyl 3,5-bis(trifluoromethyl)benzoate], the “R value (DMSO/fragment) for probe 1 labeling” value (from here on “R value (DMSO/fragment)”) in assay [1] came out at 1.0; on FAH Fumarylacetoacetase, 2.0; in assay [2], 0.8; in assay [3], 0.8; in assay [4], 0.9.
Turning to `Cn1cc(CC(=O)Oc2c(F)c(F)c(F)c(F)c2F)c2ccccc21` [fragment 22, Pentafluorophenyl 2-(1-methyl-1H-indol-3-yl)acetate], the “R value (DMSO/fragment)” value in assay [1] is 1.4; at FAH Fumarylacetoacetase, 3.0; in assay [2], 0.7; in assay [3], 0.9; in assay [4] it was 1.1.
With `COc1cc(CCC(=O)Oc2c(F)c(F)c(F)c(F)c2F)cc(OC)c1OC` [fragment 23, Pentafluorophenyl 3-(3,4,5-trimethoxyphenyl)propanoate], the “R value (DMSO/fragment)” value in assay [1] worked out at 1.3; on FAH Fumarylacetoacetase it was 2.8; in assay [2], 0.9; in assay [3], 1.1; in assay [4], 1.3.
As for `O=C(Oc1c(F)c(F)c(F)c(F)c1F)C1CCN(C(=O)OCc2ccccc2)CC1` [fragment 24, 1-Benzyl 4-(pentafluorophenyl) piperidine-1,4-dicarboxylate], the “isoTOP-ABPP reactivity ratio at lysine Q9UHY7_K111” value in assay [1] is reported as 1.4. At FAH Fumarylacetoacetase, the “isoTOP-ABPP reactivity ratio at lysine P16930_K241” value is 1.1. For the same compound, the “isoTOP-ABPP reactivity ratio at lysine Q9HC38_K305” value in assay [2] stood at 1.5. Moreover, in assay [3], the “isoTOP-ABPP reactivity ratio at lysine P62875_K67” value was 0.9. The “isoTOP-ABPP reactivity ratio at lysine Q7L0Y3_K325” value in assay [4] was found to be 1.4.
For the compound `O=C(Oc1c(F)c(F)c(F)c(F)c1F)c1ccc2ccccc2n1` [fragment 25, Pentafluorophenyl quinoline-2-carboxylate], the “isoTOP-ABPP reactivity ratio at lysine Q9UHY7_K111” value in assay [1] is 1.1. Further, the “isoTOP-ABPP reactivity ratio at lysine P16930_K241” value on FAH Fumarylacetoacetase stood at 5.2. In addition, the “isoTOP-ABPP reactivity ratio at lysine Q9HC38_K305” value in assay [2] turned out to be 0.4. The “isoTOP-ABPP reactivity ratio at lysine P62875_K67” value in assay [3] was 1.0. Moreover, the “isoTOP-ABPP reactivity ratio at lysine Q7L0Y3_K325” value in assay [4] came out at 1.1.
Regarding `O=C(Oc1ccc([N+](=O)[O-])cc1[N+](=O)[O-])C(c1ccccc1)c1ccccc1` [fragment 30, 2,4-Dinitrophenyl 2,2-diphenylacetate], the “isoTOP-ABPP reactivity ratio at lysine Q9UHY7_K111” value in assay [1] stood at 0.8. Also, the “isoTOP-ABPP reactivity ratio at lysine P16930_K241” value at FAH Fumarylacetoacetase was determined as 2.7. Further, the “isoTOP-ABPP reactivity ratio at lysine Q9HC38_K305” value in assay [2] was determined as 0.6. The “isoTOP-ABPP reactivity ratio at lysine P62875_K67” value in assay [3] came to 1.8. Moreover, the “isoTOP-ABPP reactivity ratio at lysine Q7L0Y3_K325” value in assay [4] worked out at 1.1.
Turning to `O=C(Oc1ccc([N+](=O)[O-])cc1[N+](=O)[O-])C1CCN(C(=O)OCc2ccccc2)CC1` [fragment 34, 1-Benzyl 4-(2,4-dinitrophenyl) piperidine-1,4-dicarboxylate], in assay [1] (sol, 231), the “isoTOP-ABPP ratio (R) at liganded lysine Q9UHY7_K111” value was 0.9. At FAH Fumarylacetoacetase (sol, 231), the “isoTOP-ABPP ratio (R) at liganded lysine P16930_K241” value is given as 1.2. Besides, the “isoTOP-ABPP ratio (R) at liganded lysine Q9HC38_K305” value in assay [2] (sol, 231) is reported as 20.0. For the same compound, the “isoTOP-ABPP ratio (R) at liganded lysine P62875_K67” value in assay [3] (sol, 231) amounted to 1.0. Also, the “isoTOP-ABPP ratio (R) at liganded lysine Q7L0Y3_K325” value in assay [4] (sol, 231) was 1.0.
